Data reported in publication PMC12073402, “A Selective MAP3K1 Inhibitor Facilitates Discovery of NPM1 as a Member of the Network” (Molecules, 2025).

What was measured:
Assay in all cases: KiNativ kinome profiling in PANC-1 lysate
Format in all cases: binding
CK1g3 = molecular target: T1, CK1g3 (Homo sapiens, UniProt Q9Y6M4); settings: Lys2
T1 construct: endogenous in cells; host or cells: PANC-1 cell lysate
Summary of the method: (§1)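 PANC-1 lysates were incubated with 5 μM inhibitor or DMSO, then labeled with a desthiobiotin-ATP acyl-phosphate probe that biotinylates conserved kinase lysines. Tryptic peptides were streptavidin-enriched and quantified by LC-MS/MS, reported as % change in MS signal from duplicate treated and duplicate control samples.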

JAK3 domain2 = molecular target: T2, JAK3 domain2 (Homo sapiens, UniProt P52333); settings: Lys1
T2 construct: we opted to conduct a kinome screen (KiNativ) in PANC-1 cell lysates; endogenous in cells; host or cells: PANC-1 cell lysate
Summary of the method: as §1

IKKb = molecular target: T3, IKKb (Homo sapiens, UniProt O14920)
T3 construct: we opted to conduct a kinome screen (KiNativ) in PANC-1 cell lysates; endogenous in cells; host or cells: PANC-1 cell lysate
T3 sequence (O14920 1-756): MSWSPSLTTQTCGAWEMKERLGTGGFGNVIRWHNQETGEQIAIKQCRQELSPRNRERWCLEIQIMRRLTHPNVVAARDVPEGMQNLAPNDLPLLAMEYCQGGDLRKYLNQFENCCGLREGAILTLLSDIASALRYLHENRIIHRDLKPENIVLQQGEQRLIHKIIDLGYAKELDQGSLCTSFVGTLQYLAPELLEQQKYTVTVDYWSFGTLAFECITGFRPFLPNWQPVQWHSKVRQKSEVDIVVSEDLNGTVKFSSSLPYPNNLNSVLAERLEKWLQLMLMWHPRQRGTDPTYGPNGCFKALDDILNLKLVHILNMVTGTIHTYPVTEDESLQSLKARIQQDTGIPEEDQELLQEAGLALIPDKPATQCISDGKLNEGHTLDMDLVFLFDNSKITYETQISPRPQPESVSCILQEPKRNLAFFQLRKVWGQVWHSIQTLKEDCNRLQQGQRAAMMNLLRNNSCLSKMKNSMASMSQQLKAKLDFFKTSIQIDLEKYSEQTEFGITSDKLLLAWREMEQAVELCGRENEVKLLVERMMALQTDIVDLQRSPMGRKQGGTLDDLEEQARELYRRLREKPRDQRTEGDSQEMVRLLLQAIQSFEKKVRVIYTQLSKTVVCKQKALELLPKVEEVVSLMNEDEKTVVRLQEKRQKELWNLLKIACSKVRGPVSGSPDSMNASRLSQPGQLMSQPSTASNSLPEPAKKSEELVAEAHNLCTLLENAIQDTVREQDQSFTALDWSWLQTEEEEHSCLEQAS
Summary of the method: as §1

SIK = molecular target: T4, SIK (Homo sapiens, UniProt P57059); settings: Lys1
T4 construct: endogenous in cells; host or cells: PANC-1 cell lysate
Summary of the method: as §1

CK1g1 = molecular target: T5, CK1g1 (Homo sapiens, UniProt Q9HCP0); settings: Lys2
T5 construct: endogenous in cells; host or cells: PANC-1 cell lysate
Summary of the method: as §1

PFTAIRE2 = molecular target: T6, PFTAIRE2 (Homo sapiens, UniProt Q96Q40); settings: Lys2
T6 construct: endogenous in cells; host or cells: PANC-1 cell lysate
Summary of the method: as §1

FAM20B = molecular target: T7, FAM20B (Homo sapiens, UniProt O75063); settings: ATP
T7 construct: endogenous in cells; host or cells: PANC-1 lysate
Summary of the method: as §1

CK1g2 = molecular target: T8, CK1g2 (Homo sapiens, UniProt P78368); settings: Lys2
T8 construct: endogenous in cells; host or cells: PANC-1 cell lysate
Summary of the method: as §1

CK2a1 = molecular target: T9, CK2a1 (Homo sapiens, UniProt P68400); settings: Protein Kinase Domain
T9 construct: endogenous in cells; host or cells: PANC-1 cell lysate
Summary of the method: as §1

MAP3K3 = molecular target: T10, MAP3K3 (Homo sapiens, UniProt Q99759); settings: Lys1
T10 construct: endogenous in cells; host or cells: PANC-1 cell lysate
Summary of the method: as §1

CDK9 = molecular target: T11, CDK9 (Homo sapiens, UniProt P50750)
T11 construct: endogenous in cells; host or cells: PANC-1 cell lysate
Summary of the method: as §1

PEK = molecular target: T12, PEK (Homo sapiens, UniProt Q9NZJ5); settings: Lys2
T12 construct: endogenous in cells; host or cells: PANC-1 cell lysate
Summary of the method: as §1

PITSLRE = PITSLRE (Homo sapiens, UniProt P21127); settings: Lys2
Summary of the method: as §1

MARK2 = molecular target: T13, MARK2 (Homo sapiens, UniProt Q7KZI7); settings: Lys1
T13 construct: endogenous in cells; host or cells: PANC-1 cell lysate
Summary of the method: as §1

DRAK1, DRAK2 = settings: 5 µM; ATP Loop; GKFAVVR
Summary of the method: as §1

HER2/ErbB2 = molecular target: T14, HER2/ErbB2 (Homo sapiens, UniProt P04626)
T14 construct: we opted to conduct a kinome screen (KiNativ) in PANC-1 cell lysates; endogenous in cells; host or cells: PANC-1 cell lysate
Summary of the method: as §1

CDK10 = molecular target: T15, CDK10 (Homo sapiens, UniProt Q15131); settings: Lys2
T15 construct: endogenous in cells; host or cells: PANC-1 cell lysate
Summary of the method: as §1

NDR2 = molecular target: T16, NDR2 (Homo sapiens, UniProt Q9Y2H1)
T16 construct: endogenous in cells; host or cells: PANC-1 cell lysate
Summary of the method: as §1

T11 sequence (P50750 whole entry): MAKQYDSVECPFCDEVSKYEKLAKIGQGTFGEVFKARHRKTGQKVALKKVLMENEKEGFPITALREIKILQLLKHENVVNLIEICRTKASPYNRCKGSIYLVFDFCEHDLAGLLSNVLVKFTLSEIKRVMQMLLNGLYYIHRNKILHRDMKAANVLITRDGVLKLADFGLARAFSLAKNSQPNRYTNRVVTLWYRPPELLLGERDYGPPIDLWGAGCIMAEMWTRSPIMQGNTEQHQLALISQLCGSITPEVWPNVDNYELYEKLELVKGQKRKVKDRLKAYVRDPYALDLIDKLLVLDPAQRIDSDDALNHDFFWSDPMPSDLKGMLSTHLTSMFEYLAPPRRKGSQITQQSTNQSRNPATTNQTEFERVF
T16 sequence (Q9Y2H1 whole entry): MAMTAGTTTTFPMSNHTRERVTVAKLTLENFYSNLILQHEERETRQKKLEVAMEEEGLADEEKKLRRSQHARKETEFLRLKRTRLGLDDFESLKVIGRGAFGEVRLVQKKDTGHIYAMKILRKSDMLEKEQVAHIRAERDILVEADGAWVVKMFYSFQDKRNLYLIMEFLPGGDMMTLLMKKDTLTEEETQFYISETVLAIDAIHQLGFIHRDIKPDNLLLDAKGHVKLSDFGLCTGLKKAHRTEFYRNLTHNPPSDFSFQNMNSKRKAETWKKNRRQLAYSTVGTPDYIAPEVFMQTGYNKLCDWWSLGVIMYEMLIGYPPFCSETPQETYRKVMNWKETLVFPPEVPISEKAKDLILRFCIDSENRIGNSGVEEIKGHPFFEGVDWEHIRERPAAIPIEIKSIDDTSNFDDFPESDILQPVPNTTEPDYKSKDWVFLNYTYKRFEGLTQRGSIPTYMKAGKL
T14 sequence (P04626 23-1255): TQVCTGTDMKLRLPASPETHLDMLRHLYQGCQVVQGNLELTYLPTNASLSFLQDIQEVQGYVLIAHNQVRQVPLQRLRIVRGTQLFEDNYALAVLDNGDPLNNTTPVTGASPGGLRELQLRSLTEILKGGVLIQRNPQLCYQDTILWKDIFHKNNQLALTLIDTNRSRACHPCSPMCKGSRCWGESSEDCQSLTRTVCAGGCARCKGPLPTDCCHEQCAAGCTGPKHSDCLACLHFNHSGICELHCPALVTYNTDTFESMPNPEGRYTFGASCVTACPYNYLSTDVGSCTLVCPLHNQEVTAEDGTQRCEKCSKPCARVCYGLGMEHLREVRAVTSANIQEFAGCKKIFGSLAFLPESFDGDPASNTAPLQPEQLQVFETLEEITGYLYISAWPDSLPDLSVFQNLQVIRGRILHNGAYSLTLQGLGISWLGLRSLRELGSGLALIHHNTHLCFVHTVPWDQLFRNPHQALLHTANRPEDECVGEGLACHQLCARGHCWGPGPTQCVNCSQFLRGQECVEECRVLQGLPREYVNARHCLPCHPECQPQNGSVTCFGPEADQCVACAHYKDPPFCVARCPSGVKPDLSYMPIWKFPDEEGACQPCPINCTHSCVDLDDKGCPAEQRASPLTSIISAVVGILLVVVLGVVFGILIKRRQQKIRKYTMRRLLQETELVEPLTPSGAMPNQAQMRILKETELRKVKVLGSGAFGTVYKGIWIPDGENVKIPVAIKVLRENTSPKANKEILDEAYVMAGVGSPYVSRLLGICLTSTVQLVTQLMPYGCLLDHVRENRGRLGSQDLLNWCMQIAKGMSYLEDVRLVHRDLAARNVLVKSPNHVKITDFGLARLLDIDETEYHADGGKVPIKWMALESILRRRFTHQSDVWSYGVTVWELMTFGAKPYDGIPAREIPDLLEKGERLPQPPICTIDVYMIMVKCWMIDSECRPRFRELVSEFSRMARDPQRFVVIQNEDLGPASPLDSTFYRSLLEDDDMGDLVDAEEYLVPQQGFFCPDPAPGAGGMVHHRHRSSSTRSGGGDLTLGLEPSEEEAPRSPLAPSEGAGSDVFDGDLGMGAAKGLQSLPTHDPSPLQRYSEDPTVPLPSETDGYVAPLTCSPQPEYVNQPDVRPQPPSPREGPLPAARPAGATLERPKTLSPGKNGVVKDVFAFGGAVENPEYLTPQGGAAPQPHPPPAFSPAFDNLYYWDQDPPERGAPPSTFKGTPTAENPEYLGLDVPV
Chain of PITSLRE (P21127 438-723 limits assumed): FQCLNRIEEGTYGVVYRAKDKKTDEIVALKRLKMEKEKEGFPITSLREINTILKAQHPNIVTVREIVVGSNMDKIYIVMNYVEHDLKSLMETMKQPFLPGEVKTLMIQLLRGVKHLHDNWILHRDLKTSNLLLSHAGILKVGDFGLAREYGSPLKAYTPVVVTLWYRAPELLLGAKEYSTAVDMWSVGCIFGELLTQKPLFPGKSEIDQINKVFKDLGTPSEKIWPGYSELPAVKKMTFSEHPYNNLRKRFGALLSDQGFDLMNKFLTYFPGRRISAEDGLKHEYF
T6 sequence (Q96Q40 whole entry): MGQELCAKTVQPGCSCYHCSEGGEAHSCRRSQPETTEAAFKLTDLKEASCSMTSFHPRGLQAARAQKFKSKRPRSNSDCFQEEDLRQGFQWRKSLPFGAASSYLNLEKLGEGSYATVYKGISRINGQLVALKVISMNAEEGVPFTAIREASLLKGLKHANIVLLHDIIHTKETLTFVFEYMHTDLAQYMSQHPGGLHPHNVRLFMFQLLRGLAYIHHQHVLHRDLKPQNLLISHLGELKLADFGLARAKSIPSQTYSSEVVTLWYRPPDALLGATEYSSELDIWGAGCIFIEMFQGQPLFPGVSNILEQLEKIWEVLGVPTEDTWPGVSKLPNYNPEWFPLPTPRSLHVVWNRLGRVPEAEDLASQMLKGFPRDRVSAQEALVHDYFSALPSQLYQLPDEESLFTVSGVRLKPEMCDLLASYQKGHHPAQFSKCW
T9 sequence (P68400 whole entry, the tested form may be a part): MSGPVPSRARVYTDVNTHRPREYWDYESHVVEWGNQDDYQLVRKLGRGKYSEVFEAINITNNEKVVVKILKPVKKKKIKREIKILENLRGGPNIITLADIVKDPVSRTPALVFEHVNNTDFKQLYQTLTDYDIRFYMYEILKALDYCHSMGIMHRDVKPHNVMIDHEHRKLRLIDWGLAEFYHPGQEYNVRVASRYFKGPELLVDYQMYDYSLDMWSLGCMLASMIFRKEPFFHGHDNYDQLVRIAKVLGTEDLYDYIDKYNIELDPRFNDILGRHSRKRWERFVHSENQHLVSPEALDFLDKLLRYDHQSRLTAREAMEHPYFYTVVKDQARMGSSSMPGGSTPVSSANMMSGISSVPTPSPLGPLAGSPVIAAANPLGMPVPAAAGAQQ
T13 sequence (Q7KZI7 whole entry): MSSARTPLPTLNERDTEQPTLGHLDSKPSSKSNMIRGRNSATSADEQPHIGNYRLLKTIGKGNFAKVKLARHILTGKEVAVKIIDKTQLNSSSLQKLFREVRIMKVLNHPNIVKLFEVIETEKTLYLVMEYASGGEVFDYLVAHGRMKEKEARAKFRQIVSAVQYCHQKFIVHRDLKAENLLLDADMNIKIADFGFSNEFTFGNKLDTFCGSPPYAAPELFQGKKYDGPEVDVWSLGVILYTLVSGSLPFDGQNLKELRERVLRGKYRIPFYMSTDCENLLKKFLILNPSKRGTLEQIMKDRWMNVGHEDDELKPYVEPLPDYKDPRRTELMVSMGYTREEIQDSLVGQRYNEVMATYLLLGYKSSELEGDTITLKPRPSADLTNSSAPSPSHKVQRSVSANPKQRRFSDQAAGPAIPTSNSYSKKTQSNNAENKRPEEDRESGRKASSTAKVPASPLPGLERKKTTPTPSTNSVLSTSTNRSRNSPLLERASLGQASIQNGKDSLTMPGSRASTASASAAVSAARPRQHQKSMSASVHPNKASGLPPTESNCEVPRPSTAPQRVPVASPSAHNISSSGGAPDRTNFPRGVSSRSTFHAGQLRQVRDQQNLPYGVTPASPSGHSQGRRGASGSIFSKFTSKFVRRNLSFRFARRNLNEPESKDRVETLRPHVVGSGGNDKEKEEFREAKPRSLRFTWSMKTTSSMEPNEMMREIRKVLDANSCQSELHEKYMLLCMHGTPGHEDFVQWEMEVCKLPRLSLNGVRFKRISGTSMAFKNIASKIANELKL
T8 sequence (P78368 whole entry): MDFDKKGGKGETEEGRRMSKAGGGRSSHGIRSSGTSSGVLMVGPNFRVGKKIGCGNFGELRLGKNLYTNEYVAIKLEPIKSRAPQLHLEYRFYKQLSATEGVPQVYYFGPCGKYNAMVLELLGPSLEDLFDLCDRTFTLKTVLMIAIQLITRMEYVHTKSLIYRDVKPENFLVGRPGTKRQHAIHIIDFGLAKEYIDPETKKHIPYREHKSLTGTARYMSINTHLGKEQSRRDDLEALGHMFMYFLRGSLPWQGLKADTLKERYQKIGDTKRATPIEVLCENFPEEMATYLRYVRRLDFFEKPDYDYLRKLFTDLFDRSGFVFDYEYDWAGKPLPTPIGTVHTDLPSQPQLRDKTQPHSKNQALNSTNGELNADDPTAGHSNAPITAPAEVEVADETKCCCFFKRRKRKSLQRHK
T1 sequence (Q9Y6M4 whole entry): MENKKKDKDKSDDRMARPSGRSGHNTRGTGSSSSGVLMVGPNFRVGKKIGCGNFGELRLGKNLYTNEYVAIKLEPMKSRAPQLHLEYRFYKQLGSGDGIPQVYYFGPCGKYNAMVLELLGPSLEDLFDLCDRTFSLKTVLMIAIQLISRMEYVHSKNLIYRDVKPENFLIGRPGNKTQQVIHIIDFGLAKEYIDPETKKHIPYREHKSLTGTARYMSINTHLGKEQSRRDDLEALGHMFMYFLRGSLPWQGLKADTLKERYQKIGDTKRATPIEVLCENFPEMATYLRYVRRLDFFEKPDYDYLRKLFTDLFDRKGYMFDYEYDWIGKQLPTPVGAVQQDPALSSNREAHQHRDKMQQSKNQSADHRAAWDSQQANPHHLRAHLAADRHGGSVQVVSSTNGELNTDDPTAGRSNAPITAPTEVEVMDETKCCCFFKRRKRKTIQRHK

Q: How did the inhibition at 5 µM (CK1g3) turn out when `Cn1cc(-c2cnc3ccc(NC(=O)Nc4ccc(F)c(C(F)(F)F)c4)cc3n2)cn1` [51-106, 1-(4-Fluoro-3-(trifluoromethyl)phenyl)-3-(3-(1-methyl-1H-pyrazol-4-yl)quinoxalin-6-yl)urea] was run?
A: 11.5%

Q: What about the inhibition at 5 µM (JAK3 domain2) of the same compound?
A: 25.2%

Q: What about the inhibition at 5 µM (IKKb; Lys1, WHNQETGEQIAIKQCR) of the same compound?
A: 0.1%

Q: And the inhibition at 5 µM (IKKb; Lys2, DLKPENIVLQQGEQR)?
A: ≤ 0%

Q: What about the “inhibition of IKKβ (in words)” value (IKKb; 5 μM, PANC-1 lysate) of the same compound?
A: not inhibited

Q: And the inhibition at 5 µM (SIK)?
A: 23.3%

Q: What about the inhibition at 5 µM (CK1g1) of the same compound?
A: ≤ 0%

Q: And the inhibition at 5 µM (PFTAIRE2)?
A: ≤ 0%

Q: And the inhibition at 5 µM (FAM20B)?
A: 6.6%

Q: What about the inhibition at 5 µM (CK1g2) of the same compound?
A: ≤ 0%

Q: What about the inhibition at 5 µM (CK2a1) of the same compound?
A: ≤ 0%

Q: And the inhibition at 5 µM (MAP3K3)?
A: 11.4%

Q: And the “% Inhibition” value (CDK9; 5 µM, Lys2, DMKAANVLITR)?
A: NB (NB = No Binding (≤ 0))

Q: What about the inhibition at 5 µM (CDK9; ATP Loop, […]) of the same compound?
A: ≤ 0%

Q: What about the inhibition at 5 µM (PEK) of the same compound?
A: 10.9%

Q: What about the inhibition at 5 µM (PITSLRE) of the same compound?
A: ≤ 0%

Q: And the inhibition at 5 µM (MARK2)?
A: 5%

Q: What about the “% Inhibition” value (DRAK1, DRAK2) of the same compound?
A: 4.6%

Q: And the inhibition at 5 µM (HER2/ErbB2; ATP Loop, LLDIDETEYHADGGKVPIK)?
A: ≤ 0%

Q: What about the inhibition at 5 µM (HER2/ErbB2; Lys1, GIWIPDGENVKIPVAIKVLR) of the same compound?
A: 15.6%

Q: What about the inhibition at 5 µM (CDK10) of the same compound?
A: 10.3%

Q: What about the inhibition at 5 µM (NDR2; Lys1, DTGHIYAMKILR) of the same compound?
A: ≤ 0%

Q: What about the inhibition at 5 µM (NDR2; Lys2, DIKPDNLLLDAK) of the same compound?
A: 7.6%
